From patent US9809551B2, “Solid forms of Ivacaftor and processes for the preparation thereof” (Apotex Inc., priority 2013, dated 2017) come the findings set out here.

The data set is described as follows: Storage stability of Ivacaftor APO-I polymorph at 25±2° C. / 60%±5% RH. In kind it is physicochemical. As for the experimental part:
Ivacaftor APO-I polymorph samples were packed in an inner antistatic polyethylene bag sealed with a cable tie encased within a heat sealed composite aluminum out bag under nitrogen within a HDPE drum. The samples were then tested for stability after storing at 25±2° C. with 60%±5% relative humidity (RH). Impurities, drug concentrations, polymorph stability and other parameters were measured at intervals during the storage.

For the molecule `CC(C)(C)c1cc(C(C)(C)C)c(NC(=O)c2c[nH]c3ccccc3c2=O)cc1O` [Ivacaftor APO-I polymorph, N-(2,4-di-tert-butyl-5-hydroxyphenyl)-1,4-dihydro-4-oxoquinoline-3-carboxamide], for the setting “12 months”, the “Assay (by HPLC)” value is 99.8% and the Description entry is “Off white”. For the same molecule, for the setting “Initial”, the “Assay (by HPLC)” value is reported as 99.1%, the Description entry was “Off white” and the “XRPD (polymorph stability)” value is listed as “APO-I”.
